The text below walks through data of article PMC9850094, “Chemical synthesis of a reported p47phox/p22phox inhibitor and characterization of its instability and irreproducible activity” (Frontiers in Pharmacology, 2023).

Where no end group is shown, it is not given here. TAMRA = carboxytetramethylrhodamine label; Cy5 = cyanine 5 label

In one data set the target is T1, p47phox^SH3A−B (Homo sapiens, UniProt P14598).
T1 sequence (P14598 151-286): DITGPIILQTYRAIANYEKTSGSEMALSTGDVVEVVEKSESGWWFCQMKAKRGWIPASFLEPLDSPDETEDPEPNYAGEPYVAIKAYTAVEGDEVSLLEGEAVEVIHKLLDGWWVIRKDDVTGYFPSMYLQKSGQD
Kind of data set: Covalent binding assay (LC−MS). The conditions noted are these: 15 min. The protocol: LC−MS spectra were obtained using the same LC–MS system, solvents, and gradient as for the chemical stability assay, but here the LC–MS was installed with a Poroshell C18 reverse-phase column (Agilent, Poroshell, 300SB-C18, 2.1 × 75 mm). Injection volume was 10 µL and the protein eluted at 3.2 min.
Mass source parameters: Ion polarity, positive mode; drying gas flow, 12 L/min at 250 °C; nebulizer, 35 psig; VCap, 3000 V; Fragmentor, 70 V; mass scan range, 100–2000 m/z. Mass peak deconvolution was carried as described in literature (Winkler, 2010) (https://www.bioprocess.org/esiprot/esiprot_form.php). (A) LC–MS […]
corresponding to the theoretical MW of p47phox SH3A–B (17300.38 Da). (B) LC–MS data of 0.2 mg/mL […]
17300.3 Da and another (see red arrows) is a protein adduct with MW of 17421.9 ± 0.29 Da (ΔMW relative to […]
p47phoxSH3A–B is 122 Da).
MW of 17574.0 Da ± 0.23 Da (ΔMW relative to p47phoxSH3A–B is 274 Da corresponding to an ebselene-protein […]
with p47phoxSH3A–B. Similar to a phenolic Mannich base, the reaction involves an LMH001-derived quinone methide intermediate that reacts with nucleophiles from the protein leading to a +122 Da protein adduct.
(1 picture or pasted object on this page, not shown here)

Data set [1] concerns p47phox/p22phox interaction. Also on record: method as in Smith et al., 2012. The conditions noted are these: ref Smith et al., 2012; cited from earlier work.
For data set [2], the target named is T2, p47phox^SH3A−B (human His-tagged p47phox^151−286) (Homo sapiens, UniProt P14598).
T2 construct: human His-tagged p47phox^151−286
T2 sequence (P14598 151-286): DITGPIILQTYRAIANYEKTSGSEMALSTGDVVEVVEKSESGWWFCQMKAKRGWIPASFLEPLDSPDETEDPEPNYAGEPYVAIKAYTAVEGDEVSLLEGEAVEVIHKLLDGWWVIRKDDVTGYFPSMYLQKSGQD
The data set is described as follows: Fluorescence polarization (FP) competition assay. In kind it is binding. The conditions noted are these: for Ki: over 2–20 min. The protocol:
Synthesized compounds were then tested for their ability to inhibit the interaction between p47phox^SH3A−B and the fluorescent peptide probes in 1×HBST (2% DMSO). The non-fluorescent p22phox^151−162 peptide (Sequence: Ac-[…]-NH2) was used as a control. […] FP values were fitted to the equation Y = Bottom + (Top-Bottom)/{1 + 10^[(LogIC50-X)*HillSlope]}, where X is the logarithmic value of the compound concentration. Hereby, the IC50 value was obtained, which together with the K d value, probe and p47phox^SH3A−B concentrations was used to calculate the theoretical competitive inhibition constant, the K i value. […] Here, 5 and 8 µM of p47phox^SH3A−B concentration was used for Cy5-p22phox^149−162 and TAMRA-p22phox^151−162, respectively.

The nature of data set [3]: Chemical stability assay (LC−MS). It is filed as physicochemical. The protocol:
A binary solvent system of buffer A (H2O/acetonitrile (MeCN)/formic acid, 95:5:0.1 v/v%) to buffer B (MeCN/formic acid, 99.9:0.1 v/v%) and a flow rate of 1 mL/min was used. Injection volume was 5 µL. Total sample run time was 6 min, and the percentage of buffer B increases from 0% to 100% during 0.25–4.25 min, maintains at 100% until 5 min, then decreases to 0% at 5.10 min, and stays at 0% until 6 min.

Another data set has as its system GST-p47phox^SH3A−B. Also on record: method as in Fan et al., 2022. To be noted: GST-p47phox^SH3A−B / FITC-labelled p22phox^151-162 peptide, ref Fan et al., 2022, cited from earlier work.
Data set [4] relates to NOX2. More on the design: method as in Fan et al., 2022. The conditions noted are these: COS-phox cells activated by PMA; ref Fan et al., 2022; read-out: IC50, NOX2 superoxide inhibition; cited from earlier work.
Details of data set [5]: method as in Fan et al., 2022. The conditions noted are these: mice, iv injection; ref Fan et al., 2022; cited from earlier work.
The next data set addresses SH3A−B domain of p47phox. More on the design: method as in Garsi et al., 2022. The conditions noted are these: ref Garsi et al., 2022; read-out: Kd (SPR); cited from earlier work.
The target of data set [6] is T3, NOX2 (Homo sapiens, UniProt P04839).
T3 construct: endogenous in cells
T3 sequence (P04839 2-570 limits assumed): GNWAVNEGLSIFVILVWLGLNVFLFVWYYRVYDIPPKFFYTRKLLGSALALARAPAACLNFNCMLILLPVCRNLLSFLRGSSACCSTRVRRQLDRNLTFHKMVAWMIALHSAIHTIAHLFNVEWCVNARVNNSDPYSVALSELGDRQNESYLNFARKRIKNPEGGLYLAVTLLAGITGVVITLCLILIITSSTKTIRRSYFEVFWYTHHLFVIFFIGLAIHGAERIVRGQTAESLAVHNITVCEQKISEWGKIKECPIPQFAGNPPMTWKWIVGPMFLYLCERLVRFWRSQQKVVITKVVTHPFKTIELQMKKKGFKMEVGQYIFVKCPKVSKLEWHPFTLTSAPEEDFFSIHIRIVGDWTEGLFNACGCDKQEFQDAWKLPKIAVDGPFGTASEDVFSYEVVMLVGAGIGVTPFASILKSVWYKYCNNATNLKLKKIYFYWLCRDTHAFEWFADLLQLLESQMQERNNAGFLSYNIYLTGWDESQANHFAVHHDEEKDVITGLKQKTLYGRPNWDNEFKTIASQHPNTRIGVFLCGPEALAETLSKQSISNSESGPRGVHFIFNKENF
T3 sequence (P13498 2-195 partner limits assumed): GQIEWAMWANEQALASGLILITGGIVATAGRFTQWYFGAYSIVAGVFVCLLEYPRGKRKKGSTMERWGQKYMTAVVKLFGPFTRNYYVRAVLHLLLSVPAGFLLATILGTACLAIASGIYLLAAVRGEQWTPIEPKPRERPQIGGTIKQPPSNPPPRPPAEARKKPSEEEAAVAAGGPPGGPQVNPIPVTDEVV
The data set is described as follows: NOX2 cell-based assay (WST1, PMA-activated PLB-985 cells). The conditions noted are these: PMA-stimulated differentiated PLB-985 cells, superoxide (WST1). The protocol:
The assay measures extracellular superoxide generated by PMA-activated NOX2 in PLB-985 cells using the cell-impermeable tetrazolium salt WST1 as probe ([Tan and Berridge, 2000]). […] NOX2 was activated by addition of phorbol-12-myristate-13-acetate PMA (10 nM final). Absorbance (OD440) was measured with a Spectramax Paradigm reader (Molecular Devices) for 3 h. To graph the data, the rate of superoxide was calculated for the first hour.
For orientation: Tetrazolium dyes change colour on reduction, which living cells bring about.

For data set [7], the target named is T4, p47phox^SH3A-B (human His-tagged p47phox^151-286) (human, UniProt P14598 151-286).
T4 chain: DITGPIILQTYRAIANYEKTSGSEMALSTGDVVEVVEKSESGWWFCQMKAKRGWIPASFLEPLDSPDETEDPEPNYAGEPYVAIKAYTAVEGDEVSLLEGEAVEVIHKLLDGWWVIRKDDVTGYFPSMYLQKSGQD
Kind of data set: FP; 1×HBST.

The target of data set [8] is T4, p47phox^SH3A-B (human His-tagged …). The data set is described as follows: FP; in water.
The mark [9] stands for this setting: tested as isolated compounds, 1×HBST, Cy5 or TAMRA probe, 2 or 20 min.

What is called IC50 is the midpoint of a concentration-inhibition curve. As for `O=c1c2ccccc2[se]n1-c1ccccc1` [Ebselen], the “Protein mass increase (ΔMW relative to p47phox^SH3A–B)” value at p47phox^SH3A−B (200 µM compound, 0.2 mg/mL p47phox^SH3A−B, HBST) turned out to be 274 Da. In addition, the “Conversion of p47phox^SH3A−B to molecular adduct” value on p47phox^SH3A−B (200 µM, HBST) is “fully converted”. For the same molecule, the IC50 in data set [1] was 0.3 µM.
The Ki is a dissociation constant, usually derived from enzyme kinetics or from competition with a known ligand. As usually defined, the half-life is the time needed for the level to fall by half in the phase considered. In the case of `O=C(OCc1cccc(O)c1O)c1ccc(O)c(CO)c1` [LMH001], the “Activity in the FP assay” value in data set [2] (up to 400 µM, 1×HBST, Cy5 or TAMRA probe, 2 or 20 min incubation) was “did not show any activity”. The “Activity in the FP assay in pure water” value in data set [2] (water instead of 1×HBST, Cy5 or TAMRA probe, 2 or 20 min) is “did not result in any measurable activity”. Also, the “Degradation in the HBST buffer as function of pH” value in data set [3] (1×HBST pH 6 to 8, 30 min) is listed as “increased with pH”. Moreover, the LMH001 remaining was 86% in data set [3] (H2O, 5 min); 76% in data set [3] (H2O, 30 min); 13% in data set [3] (HBST, 5 min, 100 µM, relative to MeCN 5 min); 3% in [3] (HBST, 30 min). Besides, on p47phox^SH3A−B (200 µM (17-fold molar excess), HBST), the “p47phox^SH3A−B modified” value is 20%–30%. The “Conversion of p47phox^SH3A−B to adduct” value on p47phox^SH3A−B (200 µM, water) was “negligible conversion”. Further, the results for the IC50 with GST-p47phox^SH3A−B and with NOX2 [4] were 0.149 µM and […], respectively. Moreover, the Ki at GST-p47phox^SH3A−B (read-out: Ki (FP)) was 0.054 µM. Also, the half-life in data set [5] is 2.52 min.
Broadly, the Kd is the concentration at which binding is half-saturated. `N=C(N)NCCC[C@@H](CCCCC1CC1)NC(=O)[C@@H]1CCCN1C(=O)[C@@H]1CCCN1C(=O)[C@@H]1CCCN1C(=O)CCC(=O)Nc1cccc(-c2ccc(Cl)c(Cl)c2)c1` [compound 2]: the equilibrium dissociation constant (Kd) on SH3A−B domain of p47phox was 0.043 µM.
For the molecule `O=C(O)c1ccc(O)c(CO)c1` [compound 13], the “Activity in the FP assay” value in [2] (setting [9]) is “inactive”. On NOX2 [6], the “IC50, NOX2 inhibition” value is reported as “no activity”.
With `OCc1cccc(O)c1O` [compound 15], the “Activity in the FP assay” value in data set [2] (setting [9]) was “inactive”. Also, the 50% inhibitory concentration (IC50) on NOX2 [6] (read-out: IC50, NOX2 inhibition) was found to be 63 µM.
As for Ac-PPTNPPPRPPAE-NH2 [p22phox^151–162], the Ki in data set [2] (1×HBST, probe Cy5-p22phox^149–162) lay within 14 to 22 µM; in data set [2] (1×HBST, probe TAMRA-p22phox^151–162), 17 to 31 µM; in [2] (water, probe Cy5-p22phox^149–162) it was 170 to 220 µM; in data set [2] (water, probe TAMRA-p22phox^151–162) it was 140 to 155 µM.
As to Cy5-KQPPTNPPPRPPAE [cyanine 5 (Cy5)-p22phox^149-162], the Kd in [7] came to 1.9 µM; in data set [8] it was 12 µM.
As to {TAMRA}-PPTNPPPRPPAE [carboxytetramethylrhodamine (TAMRA)-p22phox^151-162], the dissociation constant Kd in data set [7] was 7 µM; in data set [8] it was 40 µM.
